Experiments:
[1] = tested on: Jurkat line JHMI-2.2; assay: Cell death of Jurkat cells, visual grading and trypan blue; type: cell-based, human; conditions: scored after 1 to 3 days; 9.3 mAb 10 μg/ml, carbacol 30 μM
Procedure: A series of experiments were done to test whether anti-CD28 mAb might prevent cell death in mature T cells. Jurkat leukemia cells are commonly used as an example of mature T cells that mimic physiologic effects found in peripheral blood T cells. […] The Jurkat line JHMI-2.2 was obtained from A. Weiss (UCSF); the muscarinic M1 receptor subtype has been transfected and is stably expressed in these cells. JHMI-2.2 cells, 0.3×10^6/well, were added to culture wells in complete medium, or to wells that contained plastic-adsorbed anti-CD3 mAb G19-4, in the presence or absence of 9.3 mAb 10 μg/ml, or 9.3 mAb alone. Cell death was scored after 1 to 3 days of culture and graded as 0 (none), 1+(20 to 70% of cells dead), and 2+(70 to 100% of cells dead), and was determined by visual inspection of the wells, and confirmed by trypan blue permeability.

[2] = tested on: CD28^+ T cells; assay: Lymphokine secretion (IL-2, TNF-α/LT, IFN-γ, GM-CSF) by stimulated CD28+ T cells, with or without cyclosporine; type: cell-based, human; conditions: supernatant at 24 h; CSP 0.6 μg/ml where in label
[3] = tested on: CD28-stimulated IL-2 production of T cells; assay: CD28-stimulated IL-2 production with or without herbimycin A, bioassay; conditions: for IL-2: cells cultured in the single agent only, 24 h
Procedure: Cells. The CD28^+ subset of T cells was isolated from peripheral blood T lymphocytes by negative selection using immunoabsorption with goat anti-mouse Ig-coated magnetic particles as previously described in June, C. […] In some instances, T cells or Jurkat cells were cultured in complete media, or in complete media with 5 ng/ml PMA (Sigma Chemical Co., St. Louis, Mo.) or OKT3 beads (±5 beads/cell) before experiments.
To address the potential role of tyrosine kinases in CD28-triggered signaling, the effect of herbimycin A, an inhibitor of the src family protein tyrosine kinases (see Uehara, Y. et al., Biochem. Biophys. Res. Commun., 163:803 (1989)), on the CD28-triggered enhancement of IL-2 production was investigated. T cells were cultured overnight in the absence (depicted as open bars in FIG. 15) or presence (depicted as filled bars in FIG. 15) of herbimycin A (1 μM). […] Cell-free supernatant was collected, dialized to remove herbimycin A and serial dilutions were analyzed for IL-2 content by bioassay as described in June, J. Immunol., supra (1989).

[4] = tested on: CD28^+ T cells; assay: Cell cycle analysis (S+G2+M), propidium iodide flow cytometry; type: cell-based, human; conditions: 48 h after stimulation
Procedure: In separate experiments, the relative levels of IL-2 for each of the culture conditions above were independently confirmed using a commercially available ELISA assay (Genzyme Corp., Boston, Mass.). TNF-α/LT levels were measured using a semi-automated L929 fibroblast lytic assay as previously described by Kunkel et al., J. Biol. Chem., 263:5380-5384 (1988). Units of TNF-α/LT were defined using an internal standard for TNF-α (Genzyme Corp., Boston Mass.). […] IFN-γ was measured by radioimmunoassay using a commercially available kit (Centocor, Malvern, Pa.). Units for IFN-γ were determined from a standard curve using ^125I-labeled human IFN-γ provided in the test kit. GM-CSF was detected by stimulation of proliferation of the human GM-CSF-dependent cell line AML-193, as described by Lange et al., Blood, 70:192-199 (1987), in the presence of neutralizing monoclonal antibodies to TNF-α and LT. The ^3H-thymidine uptake induced by 10 ng/ml of purified GM-CSF (Genetics Institute, Cambridge, Mass.) was defined as 100 U. Separate aliquots of cells were recovered 48 h after stimulation and assayed for the percentage of cells in late stages of the cell cycle (S+G2+M) by staining of cells with propidium iodide and analysis by flow cytometry as previously described by Thompson et al., Nature, 314:363-366 (1985). […]

[5] = tested on: CD28^+ T cells; assay: T cell proliferation (3H-thymidine) in the presence of cyclosporine or dexamethasone; type: cell-based, human
Procedure: T cells, enriched by nylon wool filtration as described by Julius, et al., Euro. […] The above combinations also included […] titrations (from 25 ng/ml to 1.6 μg/ml) of cyclosporine (CSP) (Sandoz, Hanover, N.J.) dissolved in ethanol-Tween 80 as described by Wiesinger, et al., Immunobiol., 156:454-463 (1979).
^3H-thymidine incorporation was measured on day 3 of culture and the results representative of eight independent experiments are depicted in FIG. 3. […] Table 6 below illustrates the effects of cyclosporine on CD3-induced proliferation of CD28^+ T cells cultured at approximately 5×10^4 cells/well in flat-bottomed 96-well microtiter plates (CoStar, Cambridge, Mass.) under the following conditions: immobilized Mab G19-4; or immobilized mAb G19-4 and mAb 9.30 100 ng/ml; or immobilized mAb G19-4 and PMA 1 ng/ml; or Mab 9.3 100 ng/ml and PMA 1 ng/ml. Cyclosporine was prepared as above and included in the cultures at 0, 0.2, 0.4, 0.8, 1.2 μg/ml.
^3H-thymidine incorporation was determined on day 3 of culture as above. […] CD28^+ T cells cultured in the absence of cyclosporine were given cyclosporine diluent. ^3H-thymidine incorporation of cells cultured in medium, or PMA, or monoclonal antibody 9.3 only were less than 150 cpm.

[6] = tested on: CD28^+ T cells; assay: IL-4, IL-5, IFN and IL-2 in supernatants by ELISA, initial stimulation and restimulation
Procedure: Supernatants from the cell culture were analyzed for lymphokine concentration using commercially available ELISA kits and the values expressed as pg/ml for IL-4, IL-5 and γ-IFN, or as units per ml, for IL-2. Supernatants were analyzed after 24 h of culture (Initial) or alternatively, the cells were cultured for 8 days in the above forms of stimulation, the cells were recovered, washed, and then restimulated with their original treatment, and the supernatants analyzed after a further 24 h of stimulation (Restimulation). The values represent means of duplicate cultures.
Supernatants from the cell culture were analyzed for lymphokine concentration using commercially available ELISA kits and the values expressed as pg/ml for IL-4, IL-5 and γ-IFN. Supernatants were analyzed after 24 h of culture (Initial) or, alternatively, the cells were cultured for 8 days in the above forms of stimulation, and then restimulated, and the supernatants analyzed after a further 24 h period of stimulation (Restimulation). The values represent means of duplicate cultures.

[7] = tested on: CD28-induced tyrosine phosphorylation; assay: Anti-phosphotyrosine immunoblot of PMA-treated T cells; type: cell-based, human; conditions: T cells treated overnight with PMA 5 ng/ml and herbimycin A
Procedure: Immunoblot analysis of protein tyrosine phosphorylation. Details of the immunoblot assay with anti-phosphotyrosine antibodies has been described in Hsi, E. D. et al., J. Biol. Chem., 264:10836 (1989) and June, C. H. et al., J. Immunol., 144:1591 (1990). Cells were suspended at 5−10×10^7 cells/ml in reaction media, i.e., HBSS containing 0.8% FCS and 20 Mm Hepes at 37° C. at time—3 m and stimulated at time 0 m. mAbs were used at 10 μg/ml final concentration. For crosslinking, biotinylated mAbs were incubated with cells for 5-8 m at room temperature, the cells prewarmed at time 3 min and stimulated with avidin (Sigma Chemical Co.) at a final concentration of 40 μg/ml at time 0. Stimulation was terminated by the addition of ice-cold 10× lysis buffer, yielding a final concentration of 0.5% Triton X-100. See June, J. Immunol., supra (1990).
CD28-induced tyrosine phosphorylation prevented by CD45 and by herbimycin. […] T cells were treated overnight with PMA (5 ng/ml) in the presence of the indicated concentration of herbimycin A or in control medium. […] Detergent-soluble proteins were processed as previously described.
To address the effects of phosphatases on CD28-mediated signal transduction, T cells were cultured overnight with PMA (5 ng/ml). […] Monoclonal antibodies were crosslinked with avidin at time 0. The reaction was terminated after 2 m. […]

[8] = tested on: PBL, T cells or BMMNC; assay: Proliferation and expansion of PBL, T cells or BMMNC after OKT3 activation; type: cell-based, human; conditions: for Proliferation ^3H incorp.: day 3
Description: (§1) Cytotoxicity as a function of in vitro time in cell culture. […] Cytotoxicity was a strong function of culture duration however, with <0.1, 24, 3.5, 0.5, 1.0 LU at 0, 8, 15, 22, and 29 days of culture. Similar results were found when Daudi was the target, with <0.01, 23, 5, 2, and 5 LU at 0, 8, 15, 22, and 29 days of culture.
(§2) Although the BMMNC population initially contained only 25% CD3^+ cells, proliferative and cytotoxic responses were excellent after 2 weeks of culture. […] In 4 experiments using normal bone marrow or autologous bone marrow, there was a median of 89-fold expansion of cells (range 18- to 173-fold) after 9 to 19 days of culture. Mean cytotoxicity directed at Daudi and K562 mediated by BMMNC stimulated with OKT3 was 5.5 LU (range 2-11) and 4.3 LU (range 2-8), respectively. […] Either soluble OKT3 10 ng/ml(s) or immobilized OKT3 (coated with 2 μg/ml)(I) were added as indicated.
(§3) Proliferative and cytotoxic responses from 3 patients were tested. […] Proliferation was assessed on day 3 of culture and cytotoxicity on day 7.

[9] = tested on: Daudi; assay: Cytotoxicity of activated cells against Daudi; type: cell-based, human
Procedure: (§4) One lytic unit is equivalent to 20% lysis of 5×10^3 target cells per 1×10^6 effector cells as discussed in Press, H. F. et al., J. Clin. Immunol. 1:51-83 (1981). Various targets, including Daudi and K562, were tested.
In 5 different subjects, PBL were compared with T cells (E^+) in their ability to kill Daudi, K562, and BSB cells 8 days after being activated with OKT3. These experiments were performed in X-Vivo 10 supplemented with 5% human serum (HS). […]
Cytotoxicity induced by soluble or immobilized OKT3. In 7 experiments, cytotoxicity mediated by T cells after activation was compared with soluble or immobilized OKT3. […] These experiments were performed with E^+ cells in RPMI 1640 supplemented with 10% fetal bovine serum (FBS). Cytotoxicity was assessed 7 to 8 days after triggering with soluble (10 ng/ml) or immobilized (2 μg/ml) OKT3.
Either soluble OKT3 10 ng/ml(s) or immobilized OKT3 (coated with 2 μg/ml)(I) were added as indicated. […]

[10] = tested on: K562; assay: Cytotoxicity of activated cells against K562; type: cell-based, human
Procedure: as §4
In 5 different subjects, PBL were compared with T cells (E^+) in their ability to kill Daudi, K562, and BSB cells 8 days after being activated with OKT3. These experiments were performed in X-Vivo 10 supplemented with 5% human serum (HS). The mean cytotoxicity in 5 normal subjects using PBL directed at Daudi, K562, and BSB were 15.0, 7.4, and 9.2 LU, respectively. In T cells from the same 5 subjects, the mean cytotoxicity directed at Daudi, K562, and BSB were 14.3, 7.7, and 9.3 LU, respectively.
as §1
Cytotoxicity induced by soluble or immobilized OKT3. In 7 experiments, cytotoxicity mediated by T cells after activation was compared with soluble or immobilized OKT3. Both methods induced cytotoxicity directed at Daudi and K562. Soluble OKT3 activated T cells mediated a mean cytotoxicity of 27 LU (SD-18) directed at Daudi and a mean cytotoxicity of 21 LU (SD-16) directed at K562. Immobilized OKT3 activated T cells mediated a mean cytotoxicity of 22 LU (SD-16) directed at Daudi and a mean cytotoxicity of 12 LU (SD-8) directed at K562. These experiments were performed with E^+ cells in RPMI 1640 supplemented with 10% fetal bovine serum (FBS). Cytotoxicity was assessed 7 to 8 days after triggering with soluble (10 ng/ml) or immobilized (2 μg/ml) OKT3.
as §2, §3

[11] = RESTIMULATION after 8 days, further 24 h
[12] = BMMNC, 14 days after activation, 50 IU/ml IL-2
[13] = E+ cells, 7 to 8 days after triggering, 7 experiments, listed as Immobilized OKT3
[14] = E+ cells, 7 to 8 days after triggering, 7 experiments, listed as Soluble OKT3
[15] = PBL, 5 normal subjects, 8 days after activation

Molecule: C[N+](C)(C)CCOC(N)=O [Carbacol, carbacol]
- CELL DEATH (GRADE 0-2) [1]: 1+ (1+(20 to 70% of cells dead))

Molecule: C[C@H](CCC(=O)O)C[C@H](C)C[C@H](C)C(=O)/C=C(\O)[C@H](C)C[C@H](C)C/C=C/[C@@H](C)[C@@H](O)[C@@H](C)[C@@H](O)C[C@@H]1CC[C@@](C)([C@H]2CC[C@@](C)([C@@H](C)O)O2)O1 [Ionomycin, ionomycin]
- IFN-γ [2]: 0 U/ml
- IL-2 [2]: <2 U/ml
- TNF-α/LT [2]: 0 U/ml
- IL-2 [3]: < 10 U/ml
- S + G2 + M [4]: 6.6%

Molecule: CCCCCCCCCCCCCC(=O)O[C@@H]1[C@@H](C)[C@@]2(O)[C@@H](C=C(CO)C[C@]3(O)C(=O)C(C)=C[C@@H]23)[C@@H]2C(C)(C)[C@]12OC(C)=O [PMA, phorbol myristate acetate]
- IFN-γ [2]: 0 U/ml
- IL-2 [2]: <2 U/ml
- TNF-α/LT [2]: 0 U/ml
- IL-2 [3]: < 10 U/ml
- ^3HTdR ([5]; Dexamethasone 0 Nm): 5,000
- ^3HTdR ([5]; Dexamethasone 25 Nm): 1,400
- ^3H-thymidine incorporation ([5]; cells cultured with the single agent only): less than 150 cpm
- % INHIBIT ([5]; inhibition of proliferation by dexamethasone): 72%
- IFN ([6]; INITIAL, 24 h of culture): 152 pg/mL
- IL-2 ([6]; INITIAL, 24 h of culture): .07 U/ml
- IL-4 ([6]; INITIAL, 24 h of culture): <1 pg/mL
- IL-5 ([6]; INITIAL, 24 h of culture): <1 pg/mL
- IFN [6, 11]: <1 pg/mL
- IL-2 [6, 11]: 0.6 U/ml
- IL-4 [6, 11]: <1 pg/mL
- IL-5 [6, 11]: <1 pg/mL
- S + G2 + M [4]: 5.5%

Molecule: CO[C@H]1[C@@H](OC)C[C@H](C)[C@@H](OC)C2=CC(=O)C=C(NC(=O)/C(C)=C/C=C\[C@H](OC)[C@@H](OC(N)=O)/C(C)=C/[C@@H]1C)C2=O [herbimycin A]
- PMA plus ionomycin-stimulated IL-2 secretion ([3]; herbimycin A 1 μM): resistant
- Tyrosine phosphorylation induced by anti-CD28 mAb [7]: nearly completely prevented

Molecule: OKT3: anti-CD3 mAb OKT3 (IgG2a), soluble or immobilized
- Proliferation ^3H incorp. ([8]; Bone Marrow #171, AML, Relapsed): 23,479 cpm
- Proliferation ^3H incorp. ([8]; PBL P#632, non-Hodgkins lymphoma, pre-transplant): 58,670 cpm
- Proliferation ^3H incorp. ([8]; PBL P#635, Hodgkins lymphoma, pre-transplant): 27,758 cpm
- median expansion of cells ([8]; normal or autologous bone marrow, 4 experiments, 9 to 19 days): 89 fold
- mean cytotoxicity directed at Daudi [9, 12]: 5.5 LU
- mean cytotoxicity directed at Daudi [9, 13]: 22 LU
- mean cytotoxicity directed at Daudi [9, 14]: 27 LU
- mean cytotoxicity directed at Daudi [9, 15]: 15.0 LU
- mean cytotoxicity directed at Daudi ([9]; T cells (E+), same 5 subjects): 14.3 LU
- mean cytotoxicity directed at K562 [10, 12]: 4.3 LU
- mean cytotoxicity directed at K562 [10, 13]: 12 LU
- mean cytotoxicity directed at K562 [10, 14]: 21 LU
- mean cytotoxicity directed at K562 [10, 15]: 7.4 LU
- mean cytotoxicity directed at K562 ([10]; T cells (E+), same 5 subjects): 7.7 LU
